Laboratory results taken from US20040255343A1, “Caspase-9 deficient animals and the use thereof” (priority 1998, published 2004).

How the values were obtained:
Caspase-9 −/− thymocytes [1] = assay: Apoptosis assay using thymocytes (Annexin V / 7-AAD, FACS); format: cell-based, mice; conditions: Caspase-9 −/− thymocytes vs wild type; 2 μM dexamethasone, 1 μM staurosporine or 1 μg/ml anti-mouse Fas antibody plus cycloheximide; 6 hr or 24 hr
Excerpt: To investigate the role of Caspase-9 in apoptosis pathways in other systems, we used primary cultures of thymocytes. Although thymocytes from Caspase9 −/− animals developed normally with no differences in the number of thymocytes or in the ratio of surface markers such as CD4, CD8 or CD3 (data not shown), we challenged the thymocytes with several apoptotic stimuli: dexamethasone, staurosporine, and anti-Fas antibody
(§1) Thymocytes were isolated from wild type and Caspase9 −/− mice. One million cells were treated with 2 μM dexamethasone (Sigma), 1 μM staurosporine (Sigma), 1 μg/ml anti-mouse Fas antibody (PharMingen) plus […] cycloheximide (Sigma), or 10% FCS medium only for 6 hr or 24 hr. Samples were stained with Annexin V (Boehringer Mannheim) and 7-aminoactinomycin D (7-AAD) (Sigma) to label apoptotic cells for FACS Sort (Becton Dickinson).

Caspase-9 −/− thymocytes [2] = assay: DNA fragmentation assay (DNA laddering on agarose gel); format: cell-based, mice
Description: as §1
DNA was isolated using a DNA isolation kit (LeMax Biotech) and subjected to electrophoresis on a 2% agarose gel. Gels were stained by ethidium bromide and images were taken by a scanner.

Compound: CN[C@@H]1C[C@H]2O[C@@](C)([C@@H]1OC)n1c3ccccc3c3c4c(c5c6ccccc6n2c5c31)C(=O)NC4 [staurosporine]
- thymocyte survival / induced cell death (Caspase-9 −/− thymocytes [1]): reduced survival which was comparable to the death seen in controls
- DNA laddering (Caspase-9 −/− thymocytes [2]; Caspase-9 deficient thymocytes, up to 24 hours of treatment): DNA laddering was also eliminated
- DNA cleavage after long-term treatment (Caspase-9 −/− thymocytes [2]; Caspase-9 −/− thymocytes, 36 and 48 hours of continual treatment (data not shown)): did begin to cleave their DNA
